Values after ≈ are worked out from the molar mass of the structure shown. Like-named read-outs stand apart in the source and are kept apart here.
Tests used:
[1] = assay type: physicochemical; details: for pH of solution: solution of the water solubility test, 20 mg/mL in water
Experimental: (§1) HPLC analysis was performed for analyzing purity and contents such as a stability test, etc., using an Agilent 1100/1200 series HPLC Systems (Agilent, USA) analyzer, and the conditions used for HPLC were as follows. • Purity and Content Analysis Conditions: Furopyrimidine Compound of Formula 1 • Column: Hydrosphere C18 (YMC), 5 μm (150 mm×4.6 mm) • Column temperature: 30° C. • Detector: UV spectrophotometer • Detection wavelength: 254 nm • Flow rate: 1.0 mL/min • Time of analysis: 35 min • Eluent: NaClO4—NaH2PO4— phosphate buffer solution (pH 2.5±0.1)/CH3CN=65/35(v/v %) 5. Ion Chromatography (IC)
To measure water solubility, each sample of the acid addition salts of the compound of Formula 1 prepared in Examples 1 to 6 was prepared in deionized water under the following conditions, and then each solution was analyzed by HPLC according to content measurement conditions of the compound of Formula 1. The dissolved amounts (LOD: more than 0.001 mg/mL) based on the compound of Formula 1 were measured, and then the values were converted.
In detail, each 100 mg of various forms was added to 5 mL of water, and mixed using a Voltamixer at 20° C. to 25° C., and a filtrate filtered using GH Polypro membrane Acrodisc, PALL (pore size of 0.2 μm) was diluted with a dilution solvent for HPLC.

[2] = amorphous compound of Formula 1 as prepared in the reference documents; cited from earlier work
[3] = Stability of the crystalline form under storage conditions; assay type: physicochemical; details: for stability under long-term storage conditions: temperature of 25° C. and relative humidity of 60%; for stability under accelerated conditions: temperature of 40° C. and relative humidity of 75%
Experimental: as §1

[4] = Dynamic vapor sorption (DVS) hygroscopicity; assay type: physicochemical
Experimental: DVS analysis was performed in a DVS advantage (Surface measurement system, United Kingdom) analyzer at 25° C. with a relative humidity of 0% to 90%. 10 mg of a sample was placed into a wire-mesh vapor sorption balance pan, and then attached to a DVS-advantage dynamic vapor sorption balance via surface measurement systems. Until a stable weight was achieved (99.5% completion of steps), the sample was applied to a ramping profile with a relative humidity (RH) of 10% to 90% with a 10% increase of the sample while maintaining the sample in each step. Upon completion of the sorption cycle, the sample was dried using the same process while maintaining a relative humidity of […]. The changes in the sample weight during the adsorption/desorption cycle (repeated 3 times) were recorded, and the hygroscopicity of the sample was measured.

[5] = 25° C., region with a relative humidity of 10% to 90%

Compound	Solubility [1]	stability under long-term storage conditions [3]	stability under accelerated conditions [3]	water absorption in DVS [4, 5]	other results
C=CC(=O)Nc1cccc(Oc2nc(Nc3ccc(N4CCN(C)CC4)cc3)nc3ccoc23)c1 [Formula 1 (Free base), N-(3-(2-(4-(4-methylpiperazin-1-yl)phenylamino)furo[3,2-d]pyrimidin-4-yloxy)phenyl)acrylamide]	0.001 mg/mL	–	–	–	pH of solution [1]: 7.2~7.3; solubility in water [2]: less than 0.001 mg/mL
C=CC(=O)Nc1cccc(Oc2nc(Nc3ccc(N4CCN(C)CC4)cc3)nc3ccoc23)c1 [Example 2, N-(3-(2-(4-(4-methylpiperazin-1-yl)phenylamino)furo[3,2-d]pyrimidin-4-yloxy)phenyl)acrylamide]	0.3~0.7 mg/mL	sufficiently stable	sufficiently stable	about 0.8%	pH of solution ([1]; listed as 1HCl•2H2O): 5.8~5.9
C=CC(=O)Nc1cccc(Oc2nc(Nc3ccc(N4CCN(C)CC4)cc3)nc3ccoc23)c1 [Example 5, N-(3-(2-(4-(4-methylpiperazin-1-yl)phenylamino)furo[3,2-d]pyrimidin-4-yloxy)phenyl)acrylamide]	0.93 mg/mL (≈ 1980 µM)	sufficiently stable	sufficiently stable	about 1%	pH of solution ([1]; listed as 1MsOH•1H2O): 6.1
C=CC(=O)Nc1cccc(Oc2nc(Nc3ccc(N4CCN(C)CC4)cc3)nc3ccoc23)c1 [Example 6, N-(3-(2-(4-(4-methylpiperazin-1-yl)phenylamino)furo[3,2-d]pyrimidin-4-yloxy)phenyl)acrylamide]	9.59 mg/mL (≈ 20400 µM)	sufficiently stable	sufficiently stable	about 1%	solubility compared in words [1]: remarkably high solubility; pH of solution ([1]; listed as 1EsOH anhydrous): 6.3
C=CC(=O)Nc1cccc(Oc2nc(Nc3ccc(N4CCN(C)CC4)cc3)nc3ccoc23)c1 [Example 4, N-(3-(2-(4-(4-methylpiperazin-1-yl)phenylamino)furo[3,2-d]pyrimidin-4-yloxy)phenyl)acrylamide]	1.13 mg/mL (≈ 2400 µM)	sufficiently stable	sufficiently stable	about 2%	pH of solution ([1]; listed as 1MsOH•anhydrous): 6.3

The next lines start with results.

Solubility [1]	stability under long-term storage conditions [3]	stability under accelerated conditions [3]	water absorption in DVS [4, 5]	Compound	other results
1.27 mg/mL (≈ 2700 µM)	sufficiently stable	sufficiently stable	about 1%	C=CC(=O)Nc1cccc(Oc2nc(Nc3ccc(N4CCN(C)CC4)cc3)nc3ccoc23)c1 [Example 3, N-(3-(2-(4-(4-methylpiperazin-1-yl)phenylamino)furo[3,2-d]pyrimidin-4-yloxy)phenyl)acrylamide]	pH of solution ([1]; listed as 1HCl•anhydrous): 5.9~6.0
0.9~1.4 mg/mL	sufficiently stable	sufficiently stable	–	C=CC(=O)Nc1cccc(Oc2nc(Nc3ccc(N4CCN(C)CC4)cc3)nc3ccoc23)c1 [Example 1, N-(3-(2-(4-(4-methylpiperazin-1-yl)phenylamino)furo[3,2-d]pyrimidin-4-yloxy)phenyl)acrylamide]	stability under harsh conditions ([3]; printed: temperature of 40° C. and relative humidity of 75%): sufficiently stable; solubility compared in words [1]: higher solubility than the crystalline form of the monohydrochloride; pH of solution ([1]; listed as 2HCl•3H2O): 2.3~2.4; water absorption in DVS ([4]; region with a relative humidity of 0% to 20%): showed water absorption; water absorption in DVS ([4]; region with a relative humidity of 30% or more): very low water absorption
